{
  "source": "patent US8257725B2",
  "about": "“Delivery of highly lipophilic agents via medical devices” (Abbott Laboratories, priority 1997, dated 2012)",
  "key": {"[1]": {"details": "representative summary for suitable beneficial agents; cited from earlier work"}, "[2]": {"experiment": "Pig model, zotarolimus concentrations in tissues after ZoMaxx stents", "assay_type": "in vivo", "details": "eluted from ZoMaxx stents, FIG. 25"}, "[3]": {"experiment": "Octanol/water partition coefficient, shake-flask method", "assay_type": "physicochemical", "details": "for transfer coefficient (P divided by S), order: FIG. 21, S = equilibrium aqueous solubility (μg/ml); for lipophilicity (partition coefficient octanol/water): n-octanol/buffered water", "experimental": "“Solubility” is based on a standard measure used in medicinal chemistry. The octanol-water partition coefficient (P) is the ratio of distribution of a compound in a mixture of 1-octanol and H2O. LogP is the base 10 logarithm of the partition coefficient.\nIn the measurement of the partition coefficient (octanol/water), preliminary studies were conducted to determine the optimum drug concentration for each test, and the appropriate time for establishing the partition equilibrium. All experiments were carried out by two different analysts and on multiple drug lots.\nA transfer coefficient, τ, can be defined as P divided by S, where P equals the partition coefficient and S equals theequilibrium aqueous solubility, (μg/ml) as shown in FIG. 21. […] Where S equals the equilibrium aqueous solubility of the amorphous form of the drug were possible."}, "[4]": {"experiment": "Pharmacokinetics after single intravenous dose in cynomolgus monkey", "details": "single 2.5 mg/kg intravenous dose"}, "[5]": {"experiment": "Six-hour elution from PC1036-coated coupons in pH 7.4 phosphate buffered saline", "assay_type": "physicochemical", "details": "for amount released from the coupon: after six hours, PBS pH 7.4, 37° C.; for amount remaining on the coupon: six-hour elution", "experimental": "Prior to any experimentation, coated stainless steel coupons were prepared. These coupons were 316L electropolished stainless steel discs (10 mm diameter). This size was chosen because the surface area of one side of the coupon is similar to the surface area of a 15-mm open cell BiodivYsio stent. […]. The cleaning was a two-step process in which the coupons are sonicated for 3 minutes in dichloromethylene and 3 minutes in ethanol. The coupons were allowed to dry at room temperature. One side of the coupon was coated using a filtered 20-mg/mL solution of phosphoryl choline polymer PC1036 (product of Biocompatibles Ltd., Famham, Surrey, UK) in ethanol. Twenty μL PC solution was placed onto the coupon using a gas tight glass syringe, ensuring that the entire surface was coated but not spilling over the sides of the coupon. The coupons were initially air dried and then cured at 70° C. for 16 hours. They were then sent for gamma irradiation at <25 KGy. The resulting PC coating thickness was close to that of the stent and thick enough to accommodate the desired loaded drug dose, as graphically represented in FIG. 9A-B. FIG. 9A-B is a top and side view of a coated stainless steel coupon 30, having a PC-coating 20 on a electropolished stainless steel disc.\nIn these experiments, beneficial agents were loaded onto coupons and elution profiles examined. In general, the procedure is as follows. Twelve PC-coated coupons were loaded with each drug. The solutions of the drugs were usually 5.0 mg/mL in 100% ethanol and were filtered with a 0.45 μm filter prior to use.\nThe coupons were weighed before loading with the drug solution. To load 100 μg of drug, 20 μL of solution was placed (e.g., pipetted) on the center of the PC coated side of the coupon. The coupon was placed in a vial for 30 minutes with the lid closed to allow the drug to penetrate the coating. The lid was removed and the coupon was allowed to dry for an additional 90 minutes. To ensure that the coupon was completely dry, the coupon was weighed, and after 15 minutes the coupon was weighed a third time. When two weightings of the coupon were the same, the coupon was considered dry. The loaded, dry coupons were stored in a refrigerator protected from light.\nSix coated coupons of each drug were used for the elution experiments. The coupons were individually placed, coating side up, in small metal cups to hold the coupon and to allow movement to a new vial at each time point. The coupons were usually placed in a vial containing 10 mL of pH 7.4 phosphate buffered saline. The vials were stored in an orbital shaker, with horizontal shaking of 100 rpm, at 37° C. for at least 30 minutes before insertion of a coupon to allow the solution to equilibrate at the desired temperature. After the desired time had lapsed, the coupon holder was lifted and allowed to drain. It was then placed into a pre-warmed vial corresponding to the next time point. This procedure continued until the predetermined time had elapsed. At that point, the coupons went through a drug extraction step as outlined earlier. The amount of drug in the elution samples was determined by HPLC."}, "[6]": {"experiment": "Stability of drug on PC-coated stents after ETO sterilization (HPLC)", "assay_type": "physicochemical", "experimental": "In these experiments, beneficial agents were loaded onto stents and the stability of the two drugs was examined. In general, the procedure was as follows. Multiple PC-coated stents were loaded with each drug combination from solution. The solutions of the drugs were usually in the range of 2-20 mg/mL of zotarolimus and 10.0 mg/mL dexamethasone in 100% ethanol, with ˜10% PC1036 added to the solution to enhance film formation.\nThe stents were weighed before loading with the drug solution. To load approximately […] of each drug, a solution with equal amounts of zotarolimus and dexamethasone was sprayed onto the stent in a controlled fashion. The stent was allowed to dry before the stents were re-weighed to determine total drug load. The loaded, dry stents were stored in a refrigerator and were protected from light.\nAfter drug loading, stents were crimped onto catheter balloons and packaged into medical product Tyvek pouches for ETO (ethylene oxide) sterilization. The ETO sterilization process is standard in the medical device industry to ensure product safety. […]\nFor each drug, multiple stents were used to evaluate the purity and stability of the drug loaded by the above procedure. […] The concentration and the presence of degradant-related impurities of the drug in the extraction solution were analyzed by HPLC."}, "[7]": {"experiment": "Aqueous solubility, shake-flask method", "details": "amorphous DES drugs; dexamethasone crystalline"}, "[8]": {"details": "alone, in the absence of zotarolimus"}},
  "data": [
    {"molecule": "3 S,6R,7E,9R,10R,12R,14S,15E,17E,19E,21S, 23S,26R,27R,34aS)-9,10,12,13,14,21,22,23,24,25,26,27,32,33,34,34a-Hexadecahydro-9,27-dihydroxy-3-[(1R)-2-[(1S,3R,4R)-3-methoxy-4-tetrazol-1-yl)cyclohexyl]-1-methylethyl]-10,21-dimethoxy-6,8,12,14,20,26-hexamethyl-23,27-epoxy-3H-pyrido[2,1-c][1,4]oxaazacyclohentriacontine-1,5,11,28,29(4H,6H,31H)-pentone [Zotarolimus]", "values": [
      {"measurement": "LogP Values", "setting": "[1]", "result": ">4.5"},
      {"measurement": "concentration in arterial tissue adjacent to the stent placement", "setting": "[2]; all periods out to 28 days", "result": "substantial concentrations"},
      {"measurement": "concentration in distal, unstented and subjacent myocardium and unstented and distal coronary arteries", "setting": "[2]; throughout 28 days", "result": "therapeutically significant concentrations"},
      {"measurement": "transfer coefficient (P divided by S), order", "setting": "[3]", "result": "zotarolimus>>paclitaxel>>rapamycin>dexamethasone"},
      {"measurement": "lipophilicity (partition coefficient octanol/water)", "setting": "[3]; shake-flask, FIG. 20", "result": "most lipophilic of all DES drugs tested"},
      {"measurement": "lipophilicity relative to rapamycin", "setting": "[3]; shake-flask, FIG. 20", "result": "more than two times as lipophilic as rapamycin"}
    ]},
    {"molecule": "40-epi-N-[2′-pyridone]-rapamycin [Example 2-pyridone]", "values": [
      {"measurement": "t1/2", "setting": "[4]; terminal elimination half-life", "result": 2.8, "unit": "h"}
    ]},
    {"molecule": "CO[C@H]1C[C@@H]2CC[C@@H](C)[C@@](O)(O2)C(=O)C(=O)N2CCCC[C@H]2C(=O)O[C@H]([C@H](C)C[C@@H]2CC[C@H](n3ncnn3)[C@H](OC)C2)CC(=O)[C@H](C)/C=C(\\C)[C@@H](O)[C@@H](OC)C(=O)[C@H](C)C[C@H](C)/C=C/C=C/C=C/1C", "note": "(single isomer, unassigned; less polar) [Example 1, 42-Epi-(tetrazolyl)-rapamycin (less polar isomer)]", "values": [
      {"measurement": "terminal elimination half-life (t1/2) compared to rapamycin", "setting": "[4]", "result": "substantially shorter"}
    ]},
    {"molecule": "CCCCN(CCCC)C(=O)CN1C[C@H](c2ccc3c(c2)OCO3)[C@@H](C(=O)O)[C@@H]1c1ccc(OC)cc1", "note": "[ABT-627, atrasentan]", "values": [
      {"measurement": "amount released from the coupon", "setting": "[5]; [8]", "result": 50, "unit": "%"},
      {"measurement": "amount released from the coupon", "setting": "[5]; in the presence of zotarolimus", "result": "less than 10%"}
    ]},
    {"molecule": "C[C@@H]1C[C@H]2[C@@H]3CCC4=CC(=O)C=C[C@]4(C)[C@@]3(F)[C@@H](O)C[C@]2(C)[C@@]1(O)C(=O)CO", "note": "[Dexamethasone]", "values": [
      {"measurement": "degradation in the ETO sterilization environment", "setting": "[6]; dexamethasone-only coating", "result": "degraded"},
      {"measurement": "degradation in the ETO sterilization environment", "setting": "[6]; loaded in combination with zotarolimus, 1-to-1 ratio", "result": "did not degrade"},
      {"measurement": "LogP Values", "setting": "[1]", "result": "~1.9–2.2"},
      {"measurement": "Aqueous solubility, increasing order", "setting": "[7]", "result": "paclitaxel, zotarolimus, rapamycin, and dexamethasone (crystalline)"},
      {"measurement": "amount remaining on the coupon", "setting": "[5]; coupon containing dexamethasone and zotarolimus", "result": "~70", "unit": "%"},
      {"measurement": "amount remaining on the coupon", "setting": "[5]; no zotarolimus present", "result": 25, "unit": "%"}
    ]},
    {"molecule": "OCCN(CCO)c1nc(N2CCCCC2)c2nc(N(CCO)CCO)nc(N3CCCCC3)c2n1", "note": "[Dipyridamole]", "values": [
      {"measurement": "amount released from the coupon", "setting": "[5]; [8]", "result": "~90", "unit": "%"},
      {"measurement": "amount released from the coupon", "setting": "[5]; in the presence of zotarolimus", "result": "about 52%"}
    ]},
    {"molecule": "CC(=O)O[C@H]1C(=O)[C@@]2(C)[C@H]([C@H](OC(=O)c3ccccc3)[C@]3(O)C[C@H](OC(=O)[C@H](O)[C@@H](NC(=O)c4ccccc4)c4ccccc4)C(C)=C1C3(C)C)[C@]1(OC(C)=O)CO[C@@H]1C[C@@H]2O", "note": "[Paclitaxel]", "values": [
      {"measurement": "Aqueous solubility, increasing order", "setting": "[7]", "result": "paclitaxel, zotarolimus, rapamycin, and dexamethasone (crystalline)"},
      {"measurement": "transfer coefficient (P divided by S), order", "setting": "[3]", "result": "zotarolimus>>paclitaxel>>rapamycin>dexamethasone"}
    ]},
    {"molecule": "CO[C@H]1C[C@@H]2CC[C@@H](C)[C@@](O)(O2)C(=O)C(=O)N2CCCC[C@H]2C(=O)O[C@H]([C@H](C)C[C@@H]2CC[C@@H](O)[C@H](OC)C2)CC(=O)[C@H](C)/C=C(\\C)[C@@H](O)[C@@H](OC)C(=O)[C@H](C)C[C@H](C)/C=C/C=C/C=C/1C", "note": "[Rapamycin]", "values": [
      {"measurement": "LogP Values", "setting": "[1]", "result": ">4.5"},
      {"measurement": "Aqueous solubility, increasing order", "setting": "[7]", "result": "paclitaxel, zotarolimus, rapamycin, and dexamethasone (crystalline)"},
      {"measurement": "transfer coefficient (P divided by S), order", "setting": "[3]", "result": "zotarolimus>>paclitaxel>>rapamycin>dexamethasone"},
      {"measurement": "lipophilicity (partition coefficient octanol/water)", "setting": "[3]; shake-flask, FIG. 20", "result": "most lipophilic compounds in the group tested"}
    ]}
  ]
}
